Source: patent publication US8906897B2, “Antimicrobial agents based on hemin derivatives” (Obschestvo S Ogranichennoi Otvetstvennostiyu …, priority 2009, dated 2014)

Columns and labels:
human leukocytes = experiment: Cytotoxic activity against human leukocytes; settings: for Death of leukocytes in the presence of 1 mM of compound / concentration at which a weak toxic effect on leukocytes appears: 3 h incubation; for toxic effect on human blood leukocytes (in words): concentrations of up to 1 mM, 3 h
Protocol: Total leukocytes were isolated from human blood by unforced sedimentation using freshly collected venous blood from a healthy donor.
Blood (10 mL) added with 10 units/mL heparin was exposed for 2.5 h in the dark at a temperature of 15 to 18° C. A light-colored liquid supernatant (4 mL) was collected over the layer of sedimenting erythrocytes, washed three times with balanced Hanks's salt solution, and resuspended in the RPMI-1640 medium (added with 8% fetal bovine serum, 2 mM L-glutamine, and 10 mM HEPES; hereinafter, the complete medium).
The concentrations of leukocytes and erythrocytes in the suspension were determined by counts in Goryachev's chamber, after which the suspension was adjusted to a leukocyte concentration of (1.0±0.1)×10^6 cells/mL with the complete medium.
To determine the cytotoxicity of the tested compounds for human leukocytes, the cell suspension was transferred to wells of sterile 96-well plates, tested compounds were added with serial twofold dilutions (the range of tested concentrations was from 3.2 to 100 μM for GrD and gramicidin S; from 8 to 500 μM for compound XIII; and from 8 to 1000 μM for compounds V, VI, VII, VIII, IX, X, XI, XIV, XV, XIX, and Hem), and the mixture was carefully stirred. The experiment was performed in two replicas.
As controls served cells added with an equivalent amount of the solvent in which tested compounds were prepared, namely: water for compounds VII and X; an aqueous solution of DMSO for compounds V, VI, VIII, and IX; and DMSO for GrD, gramicidin S, Hem, XI, XIII, XIV, XV, and XIX. An additional control was an additive-free leukocyte suspension.
Cells were incubated with tested compounds for 3 h (37° C., 5% CO2, 100% humidity). Leukocyte death values were quantified using fluorescence microscopy. Staining with propidium iodide (it permeates only into dead cells nuclei) and Hoechst 33342 (it stains all nuclei) was used to recognize dead and living cells. Cells were incubated for 15 min in plates with propidium iodide and Hoechst 33342 (37° C., 5% CO2), and then the plates were placed under a microscope for analysis.
The dead cell fraction was derived from the fluorescence images of cells obtained in the blue (Hoechst 33342) and red (propidium iodide) spectral ranges using an Axio Observer (Zeiss, Germany) fluorescence microscope equipped with a 10× objective lens (Plan-Neofluar 10×/0.3). The following sets of fluorescence filters were used. For propidium iodide: a 530/585-nm bandpass excitation filter, a 600-nm cut-off dichroic minor, and a 615-nm longpass barrier filter for analysis. For Hoechst 33342: a 359/372-nm bandpass excitation filter, a 395-nm cut-off dichroic mirror, and a 397-nm longpass barrier filter for analysis.
A digital camera recorded three types of cell images: (a) an image in the transmitted white light; (b) a blue fluorescence image obtained with UV excitation, and (c) a red fluorescence image obtained with green light excitation. At least four fields of view were photographed per well in various regions of a well.

[1] = Solubility of tested agents (water / DMSO); settings: water or DMSO
Candida albicans No. 927 = experiment: Antifungal activity, culture growth with pH indicator; type: cell-based; design: key to Test culture growth at various dilutions of the agent: (−) No growth; the indicator is blue; (±) Weak growth; the indicator is yellow, but the precipitate of grown cells looks as a diffuse spot; (+) Strong growth; the indicator is yellow, and the cell precipitate looks as a compact spot
Protocol: The subjects of action were Cryptococcus neoformans No. 3465 museum strain cells and Candida albicans No. 927 museum strain cells grown for one day on a glucose-peptone-yeast medium at 32° C. The reference compounds were the following antimycotics: pimafucin, amphotericin, and fluconazole.
Experiments were carried out on round-bottomed 96-well plates (Lenmedpolimer) in two replicas. To the first column (0), added was 10 μL of the stock solution of a water-soluble agent with concentrations of 10^−2 to 10^−3 mol/L; to the second column, added was also the same 10 μL plus 10 μL of the solvent corresponding to the given compound, suspended, 10 μL was transferred to the next well, and so on to the 8th well of the row. Stock solutions of water-insoluble compounds of general formula (I) (compounds V, VIII, XII, XIII, XIV, and hemin) were prepared in DMSO and were diluted with DMSO and the medium. DMSO concentrations in the reaction mixture in a well were ≦5%.
Then, to every well added was 190 μL of a Cr. neoformans cell culture suspension in a synthetic nutritional medium (so that the final cell concentration was approximately 10^3 CFU/mL), this medium containing Bromocresol Blue as a pH-indicator (pH: 5.5; indicator color: blue). As pH reduced to 4.5, the indicator in the culture changed its color to yellow, thereby indicating fungal cell growth. The synthetic medium comprised the following components: salts, amino acids, microelements, vitamins, an antibiotic, and glucose (30 components altogether) [Yarrow, D., “Methods for the Isolation, Maintenance and Identification of Yeasts,” in: The Yeasts. A Taxonomic Study, Ed. by Kurtsman, C. P, and Fell, M., Elsevier, 1998, pp. 77-100]. After being inoculated with a Cr. neoformans cell suspension, the plate was incubated at 32° C. for 1 h with stirring, then transferred to a stationary thermostat and incubated for two and five days at 27° C. After being inoculated with a C. albicans cell suspension, the plates were incubated for 1 h at 32° C. with stirring, then transferred to a stationary thermostat and incubated for one and four days at 27° C.

[2] = test system: Bacillus subtilis BKM B-501; experiment: Antibacterial activity (MIC/MBC), serial dilutions in liquid MH medium; type: cell-based; settings: for MIC: 20 h, MH medium
Protocol: (§1) The antibacterial activity of compounds was determined against Bacillus subtilis BKM B-501, Staphylococcus aureus 209P, Enterococcus faecalis BKM B-871, and Micrococcus luteus BKM Ac-2230 strains (acquired from the All-Russia Collection of Microorganisms at the Institute for Biochemistry and Physiology of Microorganisms, Russian Academy of Sciences). The main parameters characterizing the antibacterial activity are the minimal inhibitory concentration (MIC) and minimal bactericidal concentration (MBC). […] MBC is the least concentration that causes the death of all cells.
(§2) MIC was quantified by inhibiting culture growth in a liquid medium with serial dilutions of compounds using a modified procedure [Amsterdam, D., “Susceptibility Testing of Antimicrobials in Liquid Media,” in Antibiotics in Laboratory Medicine, Ed. by Lorian, V., 4th ed., Baltimore: Williams and Wilkins, 1996, pp. 52-111].
(§3) Bacteria were cultured and tests were carried out on an MH liquid medium (Mueller-Hinton medium: a dry extract of beef broth, 4 g/L; starch, 1.5 g/L; casein hydrolyzate, 17.5 g/L; Sigma-Fluka Catalog No. 70192) at 37° C., 100% humidity, and under stirring. Cultures (4th through 7th receeding post-thawing) in the exponential growth phase were used for tests.
(§4) Therefore, a correction for absorption was applied in estimating the optical density of bacterial suspensions for each compound with account for its concentration in the well.
(§5) The protocol for experimental antibacterial activity determination for tested compounds was as follows. A cryovial with the test strain culture (Bacillus subtilis BKIVI B-501, Staphylococcus aureus 209P, Enterococcus faecalis BKM B-871, or Micrococcus luteus BKIVI Ac-2230) in a medium with 7% DMSO stored in liquid nitrogen, was rapidly defrosted, and 1.5 mL of the fresh MH medium was inoculated with 100 μL of the cell suspension. Cells were grown for one day at 37° C. and stirred on an orbital shaker at 150 rpm. The morphologic features of the strain and the absence of contamination with foreign bacteria were verified by: (a) inoculation on an agarized (15 g/L agar) MH medium and observation of the shape and color of the grown colonies and (b) examination of characteristic morphologic features under a microscope (Mikmed-2, LOMO, Russia) equipped with a 40× objective lens. Further bacteria were cultured in 1 mL of the liquid MH medium at 37° C. under stirring. The cells were reseeded every day. Cell cultures were used in tests starting with 3rd reseeding and ending with 6th one.
(§6) For testing, 5 μL of a bacterial suspension in the stationary growth phase was transferred to 1 mL of a sterile MH medium and incubated until the exponential growth phase was attained (3 to 5 h, 37° C., stirring at 150 rpm). To estimate the microorganisms concentration, the optical density (A) of the resulting bacterial culture was measured at a wavelength of 595 nm. The value of A=0.2 measured from a […] portion of the cell suspension in a 96-well plate, with a correction for the medium absorption applied, was set to correspond to 4×10^8 cells/mL for both strains used. Taking into account the cell concentration measurements, the suspension was diluted with the MH medium to a concentration of from 5×10^4 to 1×10^5 cells/mL and transferred to a sterile 96-well plate in an amount of 100 μL, per well. Then, the cells were added with tested compounds and twofold serial dilutions of these compounds in plate's wells were made.
(§7) The controls used were: 100 μL of an additive-free bacterial culture (four wells); a bacterial culture added with 1% DMSO or water in the same volume as in the wells with the maximal concentration of the tested compounds (four wells); and 100 μL of the sterile MH medium without bacteria and without tested compounds for control of occasional contamination in the plate (four wells).

[3] = test system: Micrococcus luteus BKM Ac-2230; experiment: as above; type: cell-based; settings: for MIC: 20 h, MH medium
Protocol: as §1, §2, §3, §4, §5, §6, §7

[4] = test system: Staphylococcus aureus 209P; experiment: as above; type: cell-based; settings: for MIC: 20 h, MH medium
Protocol: as §1, §2, §3, §4, §5, §6, §7

[5] = test system: Enterococcus faecalis BKM B-871; experiment: as above; type: cell-based; settings: for MIC: 20 h, MH medium
Protocol: as §1, §2, §3, §4, §5, §6, §7

Molecule	Death of leukocytes in the presence of 1 mM of compound (human leukocytes)	solubility (in words) [1]	Test culture growth at various dilutions of the agent (Candida albicans No. 927; dilution 0: 1 × 10^−4 M)	Test culture growth at various dilutions of the agent (Candida albicans No. 927; dilution : 2 of 1 × 10^−4 M)	Test culture growth at various dilutions of the agent (Candida albicans No. 927; dilution : 4 of 1 × 10^−4 M)	Test culture growth at various dilutions of the agent (Candida albicans No. 927; dilution : 8 of 1 × 10^−4 M)	Test culture growth at various dilutions of the agent (Candida albicans No. 927; dilution : 16 of 1 × 10^−4 M)	Test culture growth at various dilutions of the agent (Candida albicans No. 927; dilution : 32 of 1 × 10^−4 M)	Test culture growth at various dilutions of the agent (Candida albicans No. 927; dilution : 64 of 1 × 10^−4 M)	MBC [2]	MIC [2]	MBC [3]	MIC [3]	concentration at which a weak toxic effect on leukocytes appears (human leukocytes)	MBC [4]	MIC [4]	MBC [5]	MIC [5]	toxic effect on human blood leukocytes (in words) (human leukocytes)
Protohemin IX 6(7)-Mono[Cyclo(Orn-Leu-D-Phe-Pro-Val)2])amide [Compound XIII]	14 ± 2%	water-insoluble	±	±	+	+	+	+	+	–	–	–	–	–	–	–	–	–	–
C=CC1=C(C)c2cc3[n-]c(cc4nc(cc5[n-]c(cc1n2)c(C)c5CCC(=O)NCC(=O)OC)C(CCC(=O)NCC(=O)OC)=C4C)c(C)c3C=C.[Cl-].[Fe+3] [Compound XV, 6,7-Bis(N^α-Glycyl Methyl Ester)-Protohemin IX]	13 ± 1%	DMSO-soluble	–	–	–	–	–	–	–	25 ± 7 µM	12.5 ± 4 µM	6.5 µM	1.6 µM	~1000 µM	–	–	–	–	–
C=CC1=C(C)c2cc3[n-]c(cc4nc(cc5[n-]c(cc1n2)c(C)c5CCC(=O)NCCc1c[nH]cn1)C(CCC(=O)NCCc1c[nH]cn1)=C4C)c(C)c3C=C.[Cl-].[Fe+3] [Compound XIX, 6,7-bis-Histaminyl-Protohemin IX]	13 ± 1%	–	–	–	–	–	–	–	–	Not reached	100 ± 25 µM	25 µM	25 µM	~1000 µM	Not reached	200 µM	Not reached	200 µM	–
C=CC1=C(C)c2cc3[n-]c(cc4nc(cc5[n-]c(cc1n2)c(C)c5CCC(=O)NCCC(=O)NCCc1c[nH]cn1)C(CCC(=O)NCCC(=O)NCCc1c[nH]cn1)=C4C)c(C)c3C=C.[Cl-].[Fe+3] [IX]	3.1 ± 0.3%	–	–	–	–	–	–	–	–	100 ± 25 µM	50 ± 13 µM	25 µM	–	–	400 µM	100 µM	>400^3 μM	200 µM	did not cause the death
6(7)-Mono(Arg-Gly-Asp)-Protohemin IX [Compound XI]	8.6 ± 0.4%	–	–	–	–	–	–	–	–	25 ± 7 µM	12.5 ± 4 µM	200 µM	50 µM	–	Not reached	12.5 µM	Not reached	100 µM	fully due to the toxic effect of the solvent
C=CC1=C(C)c2cc3[n-]c(cc4nc(cc5[n-]c(cc1n2)c(C)c5CCC(=O)NC(CO)CO)C(CCC(=O)NC(CO)CO)=C4C)c(C)c3C=C.[Cl-].[Fe+3] [Compound XVI, Protohemin IX 6,7-bis-N-(1,3-Dihydroxypropan-2-yl)amide]	–	–	–	–	–	–	–	–	–	>200 µM	>200 µM	>200 µM	>200 µM	–	>200 µM	>200 µM	>200 µM	>200 µM	–
C=CC1=C(C)c2cc3[n-]c(cc4nc(cc5[n-]c(cc1n2)c(C)c5CCC(=O)NCC(O)CO)C(CCC(=O)NCC(O)CO)=C4C)c(C)c3C=C.[Cl-].[Fe+3] (stereo not shown) [Compound XVII, Protohemin IX 6,7-bis-N-(2,3-Dihydroxypropyl)amide]	–	–	–	–	–	–	–	–	–	>200 µM	>200 µM	>200 µM	>200 µM	–	>200 µM	>200 µM	>200 µM	>200 µM	–
